Reference: patent US20100311694A1, “Set of Geldanamycin Derivatives and Their Preparation Methods” (Institute of Medicinal Biotechnology, Chinese Academy of …, priority 2008, published 2010)

Tests used:
[1] = test system: HIV-1; assay: Anti HIV-1 activity (HIV-1 P24 antigen in cell cultures); format: cell-based; details: 4 days after addition of the reagents
Protocol: Test Procedure of Anti HIV-1 Activity
8 reagent solutions of different diluted concentrations and positive control solutions are added into cell cultures in 96 well plate respectively. The sample of each diluted solutions is made duplicately and a control cell sample is also is set up. 100 μl of cell sample at a concentration of 2×10^5cells/ml is inoculated into the wells containing reagent in the plate. The cells samples are cultured in a saturated humidity culture chamber (at a 5% CO2 atmosphere) at 37° C. The pathological changes of cells are observed daily.

[2] = test system: HBV; assay: Anti-HBV activity (HBV DNA in cell lysate, spot hybridization); format: cell-based; details: HBV DNA content of the cells, reagent solution changed every 4 days
Protocol: Test Procedure for Anti-HBV Activity
Using cell culture method, the preparation of the cells to be tested (100,000 cell's/mL) is inoculated into cell culture plate in 100 μl each well and the cells are cultured 24 h at 37° C. in 5% CO2. Tests are carried out when the cells grow into a monolayer. The target compounds as well as the controls are prepared into a series of solutions of appropriate concentrations using the culture medium and are added into 96 well culture plate respectively in 4 wells per one concentration. Then the reagent solution in each well is changed into the fresh reagent solution with the same concentration every 4 days. A cell control without reagent treatment is simultaneously is set up. The observation index is based upon the pathological changes of the cells by observing the degrees of the pathological changes of the cells under microscope every 8 days. […] Cell control without drug treatment is simultaneously is set up. The reagent solution or control medium in each well is changed into the fresh reagent solution or fresh medium respectively every 4 days. After cytolysis of the cells, HBV DNA is extracted from the cell lysis solution according to the molecular cloning technical procedure. The spots of different samples are hybridized and the A values of different hybridized spots are measured using autoradiograghic technique. The HBV DNA contents in the cell control as well as in the drug treated samples are calculated using the regression equations obtained from the standard curves to obtain half effective concentration values, the results are shown in Table 1.

Compound: COC1C=CC=C(C)C(=O)NC2=CC(=O)C(NCC3CCNCC3)=C(CC(C)CC(OC)C(O)C(C)C=C(C)C1OC(N)=O)C2=O (centres unmarked) [GM-AMPP]
- Activity of HIV inhibition IC50 [1]: 0.06 µg/mL
- Activity of HBV inhibition IC50 [2]: 8.0 µg/mL

Compound: COC1C=CC=C(C)C(=O)NC2=CC(=O)C(NCCOCCO)=C(CC(C)CC(OC)C(O)C(C)C=C(C)C1OC(N)=O)C2=O (centres unmarked) [GM-W25]
- Activity of HIV inhibition IC50 [1]: 0.43 µg/mL
- Activity of HBV inhibition IC50 [2]: 0.32 µg/mL

Compound: COC1C=CC=C(C)C(=O)NC2=CC(=O)C(NCC3(O)CCCCC3)=C(CC(C)CC(OC)C(O)C(C)C=C(C)C1OC(N)=O)C2=O (centres unmarked) [GM-W65]
- Activity of HIV inhibition IC50 [1]: 6.81 µg/mL
- Activity of HBV inhibition IC50 [2]: 3.1 µg/mL

Compound: COC1C=CC=C(C)C(=O)NC2=CC(=O)C(NC(C)(C)CO)=C(CC(C)CC(OC)C(O)C(C)C=C(C)C1OC(N)=O)C2=O (centres unmarked) [GM-W7]
- Activity of HIV inhibition IC50 [1]: 9.89 µg/mL
- Activity of HBV inhibition IC50 [2]: 8.0 µg/mL

Compound: COC1C=CC=C(C)C(=O)NC2=CC(=O)C(NCCc3ccccn3)=C(CC(C)CC(OC)C(O)C(C)C=C(C)C1OC(N)=O)C2=O (centres unmarked) [GM-W18]
- Activity of HIV inhibition IC50 [1]: 33.41 µg/mL
- Activity of HBV inhibition IC50 [2]: 50.4 µg/mL

Compound: 17-(4′-((5″-(4′″-amino-2′″-oxopyrimidine-1′″-(2H)-yl)-3″,4″-dihydroxyl-tetrahydrofuran-2″yl)methoxyl)-4′-oxobutylamino)-17-de methoxy geldanamycin [GM-CY]
- Activity of HIV inhibition IC50 [1]: 0.02 µg/mL
- Activity of HBV inhibition IC50 [2]: 0.032 µg/mL

Compound: CO[C@H]1/C=C\C=C(/C)C(=O)NC2=CC(=O)C(NCC3CCCO3)=C(C[C@@H](C)C[C@H](OC)[C@H](O)[C@@H](C)/C=C(\C)[C@@H]1OC(N)=O)C2=O (some centres unmarked) [THFM-GM, 17-tetrahydrofurfurylamino-17-demethoxy geldanamycin]
- Activity of HIV inhibition IC50 [1]: 0.14 µg/mL
- Activity of HBV inhibition IC50 [2]: 0.01 µg/mL

Compound: CCN(CCNC1=C2CC(C)CC(OC)C(O)C(C)C=C(C)C(OC(N)=O)C(OC)C=CC=C(C)C(=O)NC(=CC1=O)C2=O)c1cccc(C)c1 (centres unmarked) [GM-W30]
- Activity of HIV inhibition IC50 [1]: 10.89 µg/mL
- Activity of HBV inhibition IC50 [2]: 5.6 µg/mL

Compound: COC1C=CC=C(C)C(=O)NC2=CC(=O)C(NCCc3cccnc3)=C(CC(C)CC(OC)C(O)C(C)C=C(C)C1OC(N)=O)C2=O (centres unmarked) [GM-W32]
- Activity of HIV inhibition IC50 [1]: 0.48 µg/mL
- Activity of HBV inhibition IC50 [2]: 6.4 µg/mL

Compound: COC1C=CC=C(C)C(=O)NC2=CC(=O)C(NC(c3ccccc3)c3ccccc3)=C(CC(C)CC(OC)C(O)C(C)C=C(C)C1OC(N)=O)C2=O (centres unmarked) [GM-W44]
- Activity of HIV inhibition IC50 [1]: >60 µg/mL
- Activity of HBV inhibition IC50 [2]: >100 µg/mL

Compound: COC1C=CC=C(C)C(=O)NC2=CC(=O)C(NN3CCN(C)CC3)=C(CC(C)CC(OC)C(O)C(C)C=C(C)C1OC(N)=O)C2=O (centres unmarked) [GM-W35]
- Activity of HIV inhibition IC50 [1]: 3.48 µg/mL
- Activity of HBV inhibition IC50 [2]: 4.36 µg/mL

Compound: COC1C=CC=C(C)C(=O)NC2=CC(=O)C(NCCN3CCCCC3)=C(CC(C)CC(OC)C(O)C(C)C=C(C)C1OC(N)=O)C2=O (centres unmarked) [GM-AEPD, 17-(2′-(1″-azacyclohexyl-1″-)ethylamino)-17-demethoxy geldanamycin]
- Activity of HIV inhibition IC50 [1]: <0.01 µg/mL
- Activity of HBV inhibition IC50 [2]: 0.08 µg/mL

Compound: COC1C=CC=C(C)C(=O)NC2=CC(=O)C(NNC(=O)c3ccco3)=C(CC(C)CC(OC)C(O)C(C)C=C(C)C1OC(N)=O)C2=O (centres unmarked) [GM-W83]
- Activity of HIV inhibition IC50 [1]: 3.56 µg/mL
- Activity of HBV inhibition IC50 [2]: 3.2 µg/mL

Compound: COC1C=CC=C(C)C(=O)NC2=CC(=O)C(NCCC3OCCO3)=C(CC(C)CC(OC)C(O)C(C)C=C(C)C1OC(N)=O)C2=O (centres unmarked) [GM-W28]
- Activity of HIV inhibition IC50 [1]: 0.21 µg/mL
- Activity of HBV inhibition IC50 [2]: 0.10 µg/mL

Compound: COc1cccc(CCNC2=C3CC(C)CC(OC)C(O)C(C)C=C(C)C(OC(N)=O)C(OC)C=CC=C(C)C(=O)NC(=CC2=O)C3=O)c1 (centres unmarked) [GM-W87]
- Activity of HIV inhibition IC50 [1]: 0.39 µg/mL
- Activity of HBV inhibition IC50 [2]: 0.064 µg/mL

Compound: COC1C=CC=C(C)C(=O)NC2=CC(=O)C(NCc3cccnc3)=C(CC(C)CC(OC)C(O)C(C)C=C(C)C1OC(N)=O)C2=O (centres unmarked) [GM-W20]
- Activity of HIV inhibition IC50 [1]: 26.42 µg/mL
- Activity of HBV inhibition IC50 [2]: 6.89 µg/mL

Compound: COC1C=CC=C(C)C(=O)NC2=CC(=O)C(NN3CCCCC3)=C(CC(C)CC(OC)C(O)C(C)C=C(C)C1OC(N)=O)C2=O (centres unmarked) [GM-W11]
- Activity of HIV inhibition IC50 [1]: 3.87 µg/mL
- Activity of HBV inhibition IC50 [2]: 8.0 µg/mL

Compound: COC1C=CC=C(C)C(=O)NC2=CC(=O)C(NCc3cccs3)=C(CC(C)CC(OC)C(O)C(C)C=C(C)C1OC(N)=O)C2=O (centres unmarked) [GM-W50]
- Activity of HIV inhibition IC50 [1]: 1.57 µg/mL
- Activity of HBV inhibition IC50 [2]: 0.64 µg/mL

Compound: COC1C=CC=C(C)C(=O)NC2=CC(=O)C(NCCOC(C)C)=C(CC(C)CC(OC)C(O)C(C)C=C(C)C1OC(N)=O)C2=O (centres unmarked) [GM-W31]
- Activity of HIV inhibition IC50 [1]: 0.32 µg/mL
- Activity of HBV inhibition IC50 [2]: 0.32 µg/mL

Compound: CCN1CCCC1CNC1=C2C[C@H](C)C[C@H](OC)[C@H](O)[C@@H](C)/C=C(\C)[C@@H](OC(N)=O)[C@@H](OC)/C=C/C=C(\C)C(=O)NC(=CC1=O)C2=O (some centres unmarked) [GM-228, 17-(2″-(N-ethylpyrrolidinyl)-methylamino)-17-demethoxy geldanamycin]
- Activity of HIV inhibition IC50 [1]: 0.009 µg/mL
- Activity of HBV inhibition IC50, μg/ml [2]: 0/01

Compound: CO[C@H]1/C=C\C=C(/C)C(=O)NC2=CC(=O)C(NC[C@@H]3CCCO3)=C(C[C@@H](C)C[C@H](OC)[C@H](O)[C@@H](C)/C=C(\C)[C@@H]1OC(N)=O)C2=O [THFM(S)-GM, 2′S-17-tetrahydrofurfurylamino-17-demethoxy geldanamycin]
- Activity of HIV inhibition IC50 [1]: 0.06 µg/mL
- Activity of HBV inhibition IC50 [2]: 0.032 µg/mL

Compound: CCN1CCCC1CNC1=C2CC(C)CC(OC)C(O)C(C)C=C(C)C(OC(N)=O)C(OC)C=CC=C(C)C(=O)NC(=CC1=O)C2=O (centres unmarked) [GM-210R, 17-(2″R-2″-(N-ethylpyrrolidinyl)-methylamino)-17-demethoxy geldanamycin]
- Activity of HIV inhibition IC50 [1]: 0.01 µg/mL
- Activity of HBV inhibition IC50 [2]: 0.064 µg/mL

Compound: COC1C=CC=C(C)C(=O)NC2=CC(=O)C(NCCC3CC(CC(=O)OC(C)(C)C)OC(C)(C)O3)=C(CC(C)CC(OC)C(O)C(C)C=C(C)C1OC(N)=O)C2=O (centres unmarked) [GM-W79]
- Activity of HIV inhibition IC50 [1]: 1.47 µg/mL
- Activity of HBV inhibition IC50 [2]: 3.2 µg/mL

Compound: COC1C=CC=C(C)C(=O)NC2=CC(=O)C(NCCNC(=O)c3cccnc3)=C(CC(C)CC(OC)C(O)C(C)C=C(C)C1OC(N)=O)C2=O (centres unmarked) [GM-418, 17-(2′-nicotinamidoethylamino)-17-demethoxy geldanamycin]
- Activity of HIV inhibition IC50 [1]: 0.37 µg/mL
- Activity of HBV inhibition IC50 [2]: 0.08 µg/mL

Compound: COC1C=CC=C(C)C(=O)NC2=CC(=O)C(NCC3OCCO3)=C(CC(C)CC(OC)C(O)C(C)C=C(C)C1OC(N)=O)C2=O (centres unmarked) [GM-W29]
- Activity of HIV inhibition IC50 [1]: 0.67 µg/mL
- Activity of HBV inhibition IC50 [2]: 6.4 µg/mL

Compound: COC1C=CC=C(C)C(=O)NC2=CC(=O)C(NCc3ccccn3)=C(CC(C)CC(OC)C(O)C(C)C=C(C)C1OC(N)=O)C2=O (centres unmarked) [GM-W19]
- Activity of HIV inhibition IC50 [1]: 28.90 µg/mL
- Activity of HBV inhibition IC50 [2]: 3.4 µg/mL

Compound: COC1C=CC=C(C)C(=O)NC2=CC(=O)C(NC3CC(C)(C)N(C)C(C)(C)C3)=C(CC(C)CC(OC)C(O)C(C)C=C(C)C1OC(N)=O)C2=O (centres unmarked) [GM-W69]
- Activity of HIV inhibition IC50 [1]: 22.23 µg/mL
- Activity of HBV inhibition IC50 [2]: 10.8 µg/mL

Compound: COC1C=CC=C(C)C(=O)NC2=CC(=O)C(NCC(O)c3ccccc3)=C(CC(C)CC(OC)C(O)C(C)C=C(C)C1OC(N)=O)C2=O (centres unmarked) [GM-W8]
- Activity of HIV inhibition IC50 [1]: 1.22 µg/mL
- Activity of HBV inhibition IC50 [2]: 1.32 µg/mL

Compound: CCC(CO)(CO)NC1=C2CC(C)CC(OC)C(O)C(C)C=C(C)C(OC(N)=O)C(OC)C=CC=C(C)C(=O)NC(=CC1=O)C2=O (centres unmarked) [GM-W63]
- Activity of HIV inhibition IC50 [1]: 1.37 µg/mL
- Activity of HBV inhibition IC50 [2]: 3.2 µg/mL

Compound: COC1C=CC=C(C)C(=O)NC2=CC(=O)C(NCC(C)(C)CO)=C(CC(C)CC(OC)C(O)C(C)C=C(C)C1OC(N)=O)C2=O (centres unmarked) [GM-W16]
- Activity of HIV inhibition IC50 [1]: 0.43 µg/mL
- Activity of HBV inhibition IC50 [2]: 0.064 µg/mL

Compound: COC1C=CC=C(C)C(=O)NC2=CC(=O)C(NCC3CCCCN3)=C(CC(C)CC(OC)C(O)C(C)C=C(C)C1OC(N)=O)C2=O (centres unmarked) [GM-W22]
- Activity of HIV inhibition IC50 [1]: 1.37 µg/mL
- Activity of HBV inhibition IC50 [2]: 3.2 µg/mL

Compound: COC1C=CC=C(C)C(=O)NC2=CC(=O)C(NCCN3CCCC3)=C(CC(C)CC(OC)C(O)C(C)C=C(C)C1OC(N)=O)C2=O (centres unmarked) [GM-W52]
- Activity of HIV inhibition IC50 [1]: 0.65 µg/mL
- Activity of HBV inhibition IC50 [2]: 0.32 µg/mL

Compound: COC1C=CC=C(C)C(=O)NC2=CC(=O)C(NC3CCNCC3)=C(CC(C)CC(OC)C(O)C(C)C=C(C)C1OC(N)=O)C2=O (centres unmarked) [GM-W37]
- Activity of HIV inhibition IC50 [1]: 1.43 µg/mL
- Activity of HBV inhibition IC50 [2]: 1.32 µg/mL

Compound: COc1ccc(C=CC(=O)NCCNC2=C3C[C@H](C)C[C@H](OC)[C@H](O)[C@@H](C)/C=C(\C)[C@@H](OC(N)=O)[C@@H](OC)/C=C/C=C(\C)C(=O)NC(=CC2=O)C3=O)cc1OC [GM-413, 17-(2′-(3″,4″-dimethylcaffeoyl amido)ethylamino)-17-demethoxy geldanamycin]
- Activity of HIV inhibition IC50 [1]: 0.48 µg/mL
- Activity of HBV inhibition IC50 [2]: 0.32 µg/mL
